Experimental data as given in patent publication US8367069B2, “Cytotoxic T cell defined EGFR peptide and an optimized derivative peptide” (University of Pittsburgh—of the Commonwealth System of …, priority 2008, dated 2013).

Experiments:
PCI-30 = assay: IFN-γ ELISPOT, stimulated CD8+ T cells against PCI-30 head and neck tumor cells; assay type: cell-based, human; conditions: substance added to CTL plus PCI-30 cells
Protocol: PBMCs were isolated by density centrifugation on Ficoll-Paque™ PLUS (GE Healthcare Bio-Science AB; SE-751 84 Uppsala) and used to prepare mature DCs using methods described in the art. PBMCs were resuspended at 5×10^7/ml in AIM-V medium (Invitrogen) and were incubated for 90 min in 75-cm^2 tissue culture flasks or six-well plates (37° C.; 5% CO2). Non-adherent (T cell-enriched) cells were gently washed out with HBSS and subsequently frozen. The plastic adherent cells were cultured in AIM-V medium supplemented with 1000 units/ml rhGM-CSF and 1000 units/ml rhIL-4. […] The stimulated CD8^+ T cells were analyzed for specificity in IFN-γ ELISPOT and ^51Cr release assays at day 21 and then every 7 days thereafter.
After incubation at 37° C. in 5% CO2 for 40 hours (IFN-γ ELISPOT assays), cells were removed by washings with PBS-0.05% Tween 20 (PBS-T). Captured cytokine was detected at sites of its secretion by incubation for 4 hours with biotinylated mAb anti-hIFN-γ (7-B6-1; Mabtech) at 2 μg/ml in PBS-0.5% BSA. […] Spot numbers and spot sizes were automatically determined with the use of computer-assisted video image analysis.

EGFR family = assay: Cross-reactivity of polypeptide-derived CTL; assay type: cell-based, human
HLA-A*0201 = HLA-A*0201 (Homo sapiens, UniProt P04439, D140Y/D185E/D98H/E176V/E277Q/G131W/G231S/I119V/I121R/I166T/I218V/L300P/L318F/N151K/N90K/P208A/P217A/Q86G/Q94H/R138H/R169H/T345S); conditions: cited from earlier work
T2 cells = assay: IFN-γ ELISPOT, CTL recognition of polypeptide pulsed T2 cells; assay type: cell-based, human; conditions: T2 cells pulsed with the polypeptide; 10 μg/ml at 37° C.
Protocol: In vitro stimulation (IVS) was performed using EGFR853-861 (i.e., SEQ ID NO: 1, wherein the residue at position 2 is threonine) or EGFR853-861L (i.e., SEQ ID NO: 1, wherein the residue at position 2 is leucine) to induce cytotoxic T lymphocytes (CTL) using CD8+PBMC from five HLA-A*0201^+ healthy donors and one head and neck squamous cell carcinoma (SCCHN) patient. The resulting EGFR-specific CTL were tested for EGFR853-861 specificity and HLA class I antigen restriction using polypeptide pulsed T2 cells. CTL generated against EGFR853-861 polypeptide recognized T2 cells pulsed with either EGFR853-861 or EGFR853-861L polypeptide, but not T2 cells alone or T2 cells incubated with the HIV Pol476-484 polypeptide (10 μg/ml at 37° C.) (see FIGS. 6A and 6B). […]
PBMCs were isolated by density centrifugation on Ficoll-Paque™ PLUS (GE Healthcare Bio-Science AB; SE-751 84 Uppsala) and used to prepare mature DCs using methods described in the art. […] The stimulated CD8^+ T cells were analyzed for specificity in IFN-γ ELISPOT and ^51Cr release assays at day 21 and then every 7 days thereafter.
The recognition of APCs pulsed with polypeptide (EGFR853-861 or EGFR853-861L) and head and neck tumor cells was assessed by ELISPOT assays specific for hu-IFN-γ. […]

## panitumumab
PCI-30
  change in IFN-γ spots on addition to CTLs (stimulated with EGFR853-861) and PCI-30 cells: increased

## ITDFGLARL [HER2861-869]
EGFR family
  cross-reactivity of CTL derived from the polypeptide: demonstrated cross-reactivity
HLA-A*0201
  HLA-A*0201 binding: binds

## HIV Pol476-484: negative control peptide (AGADRQGTV; UniProt P04585 476-484, looked up, fragment)
T2 cells
  recognition of polypeptide pulsed T2 cells by CTL generated against EGFR853-861: not
